Values joined by “and” are separate entries in the source; they are usually repeats but may differ in a detail not shown here. Equal entries are not always repeated.
Molecular target: T1, Aldo-keto reductase family 1 member C3 (Homo sapiens, UniProt P42330)
T1 sequence (P42330 whole entry): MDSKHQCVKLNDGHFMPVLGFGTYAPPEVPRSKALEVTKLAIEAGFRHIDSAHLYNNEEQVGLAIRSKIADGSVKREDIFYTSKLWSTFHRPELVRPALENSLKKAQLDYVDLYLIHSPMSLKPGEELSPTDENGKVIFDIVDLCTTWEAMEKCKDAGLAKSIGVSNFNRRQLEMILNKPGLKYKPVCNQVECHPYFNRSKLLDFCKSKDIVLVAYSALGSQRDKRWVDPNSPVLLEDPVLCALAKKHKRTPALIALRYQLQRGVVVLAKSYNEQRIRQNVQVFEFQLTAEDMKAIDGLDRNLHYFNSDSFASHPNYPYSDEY
Test: Inhibitory Activity Assay: Essentially, the enzyme activity is measured by quantification of the Coumberol from Coumberone (Halim, M., Yee, D. J., and Sames, D., J. AM. CHEM. SOC. 130, 14123-14128 (2008) and Yee, D. J., Balsanek, V., Bauman, D. R., Penning, T. M., and Sames, D., Proc. Natl. Acad. Sci. USA 103, 13304-13309 (2006)). In this test, the increase of the highly fluorescent Coumberol by NADPH⿿(nicotinamide adenine dinucleotide phosphate)-dependent reduction of the non-fluorescent Coumberone by AKR1C3 can be determined.The enzyme used was recombinant human AKR1C3 (Aldo-keto reductase family 1 member C3) (GenBank Accession No. NM_003739). This was expressed in E. coli as GST (glutathione S transferase) fusion protein and purified by glutathione Sepharose affinity chromatography. The GST was removed by digestion with thrombin and subsequent size exclusion chromatography (Dufort, I., Rheault, P., Huang, X F., Soucy, P., and Luu-The, V., Endocrinology 140, 568-574 (1999)). […]

C[C@]12CC[C@@H]3c4ccc(C(=O)NCC5(C(=O)O)CC5)cc4CC[C@H]3[C@@H]1CC=C2c1cncc(F)c1
IC50: 9.2 nM and 10.2 nM

— ChEMBL document CHEMBL3887007, “Estra-1,3,5(10),16-tetraene-3-carboxamide derivatives, processes for their preparation, pharmaceutical preparations comprising them and their use for preparing medicaments” (2016)
